The assay deals with POLRMT (Homo sapiens (Human), UniProt O00411). Briefly: homogeneous TR-FRET assay of mitochondrial transcription (inhibition of POLRMT). It is filed as biochemical. Particulars: 7.5 nM POLRMT, 15 nM TFB2M, 30 nM TFAM, 0.5 nM DNA template, 500 μM NTPs, 37° C. for 60 minutes. As for the experimental part:
The ability of some compounds of the present invention to inhibit POLRMT were determined in a homogeneous TR-FRET Assay using high-throughput screening in a 384-well plate format. […] Detection of the product is facilitated by hybridization of two DNA-oligonucleotide probes to specific and adjacent sequences within the RNA product sequence. Upon annealing of the probes, two fluorophores are coupled directly to an acceptor nucleotide probe (ATTO647, 5′), or introduced via a coupled streptavidin with a biotinylated donor nucleotide probe (Europium cryptate) that is brought into sufficient proximity to serve as a fluorescence-donor-acceptor pair. Thus, a FRET signal at 665 nm is generated upon excitation at 340 nm.
The DNA template is restriction linearized proximal to the promotor 3′-end (pUC-LSP). […] No nucleotide triphosphate mix is added to negative control samples. Microplates with compounds to be tested in the assay are prepared from 10 mM compound stocks in 100% DMSO, equal amounts of DMSO without any compound are added to positive control and negative control samples.
During the incubation, a mix of the detection reagents is prepared in a buffer such that the enzymatic reaction is terminated due to chelating of Mg-ions and increased ionic strength, containing 50 mM Tris-HCl (pH 7.5), 700 mM NaCl, 20 mM EDTA, and 0.01% (w/v) Tween-20. Europium-streptavidin is pre-incubated with a 200-fold molar excess of a random sequence oligonucleotide to block unspecific binding of oligo, for two hours at ambient temperature in the dark. Afterwards, the blocked Europium-streptavidin is kept on ice until use.
At the end of the enzymatic reaction time, 5 μL detection oligo mix in the detection buffer is added, and assay plates are mixed and kept at ambient temperature for one hour, protected from light. The concentration of the Acceptor nucleotide oligo (e.g., ATTO647N-5′-[…]-3′) and Donor nucleotide oligo (e.g., bio-5′-[…](-bio)[…]-bio-3′) in each assay well is 1 nM, and 3 nM, respectively.
After incubation with oligo mix, 5 μL of pre-blocked Europium-streptavidin reagent is dispensed to each assay well, assay plates are again mixed and kept at ambient temperature for one hour, protected from light.
The generated signal is measured with BMG Pherastar microtiter plate reader with a TRF light unit, using excitation at 340 nm, an integration time of 200 μs, and a delay time of 100 μs, before detection at 620 nm and 665 nm. The ratio of donor- and acceptor-fluorescence is used as a measure of the generated transcript product (i.e. enzymatic activity).

One may read the IC50 as the concentration that inhibits the measured activity by half. Lower therefore signals greater potency.

Sequence of POLRMT (O00411 42-1230): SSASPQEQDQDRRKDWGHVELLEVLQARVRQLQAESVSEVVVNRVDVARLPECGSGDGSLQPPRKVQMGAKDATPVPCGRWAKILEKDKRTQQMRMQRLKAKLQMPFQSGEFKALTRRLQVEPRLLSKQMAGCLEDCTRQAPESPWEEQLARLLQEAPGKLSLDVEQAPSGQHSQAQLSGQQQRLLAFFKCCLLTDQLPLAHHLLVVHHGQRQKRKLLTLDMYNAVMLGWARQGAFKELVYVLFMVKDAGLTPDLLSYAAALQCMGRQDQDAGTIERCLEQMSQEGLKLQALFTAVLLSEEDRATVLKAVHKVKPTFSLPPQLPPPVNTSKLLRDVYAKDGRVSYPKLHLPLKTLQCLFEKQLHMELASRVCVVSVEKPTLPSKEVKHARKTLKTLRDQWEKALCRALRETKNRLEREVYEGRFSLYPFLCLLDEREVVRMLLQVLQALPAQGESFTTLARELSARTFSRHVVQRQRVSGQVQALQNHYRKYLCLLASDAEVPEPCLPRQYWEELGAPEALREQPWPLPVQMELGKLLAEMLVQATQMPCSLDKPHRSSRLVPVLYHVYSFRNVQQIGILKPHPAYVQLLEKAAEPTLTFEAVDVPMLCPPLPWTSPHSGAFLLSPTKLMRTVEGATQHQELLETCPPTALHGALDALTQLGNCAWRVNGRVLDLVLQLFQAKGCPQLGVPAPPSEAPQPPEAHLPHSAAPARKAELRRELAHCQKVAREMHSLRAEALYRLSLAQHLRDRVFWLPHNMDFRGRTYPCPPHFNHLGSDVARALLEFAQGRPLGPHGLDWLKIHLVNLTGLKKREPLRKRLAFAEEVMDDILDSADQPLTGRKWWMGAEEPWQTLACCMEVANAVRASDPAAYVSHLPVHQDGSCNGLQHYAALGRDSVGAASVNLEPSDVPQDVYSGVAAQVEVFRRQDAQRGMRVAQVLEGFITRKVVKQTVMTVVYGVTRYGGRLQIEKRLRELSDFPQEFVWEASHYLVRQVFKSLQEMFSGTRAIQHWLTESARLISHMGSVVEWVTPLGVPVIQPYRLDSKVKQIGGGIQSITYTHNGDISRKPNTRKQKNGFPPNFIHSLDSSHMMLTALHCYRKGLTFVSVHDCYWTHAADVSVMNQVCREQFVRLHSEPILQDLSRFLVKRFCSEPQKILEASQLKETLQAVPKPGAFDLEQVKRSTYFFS

Compound `Cc1ccccc1-c1cc(=O)oc2cc(CC(C)C(=O)N3CCC(C(=O)O)CC3)ccc12` (single isomer, unassigned) [Example 94, 1-(2-methyl-3-(2-oxo-4-(o-tolyl)-2H-chromen-7-yl)propanoyl)piperidine-4-carboxylic acid] displayed a concentration for half-maximal inhibition (IC50) of 200 nM.

Consider `COC[C@H](Nc1ccc2c(-c3ccccc3C)cc(=O)oc2c1)C(=O)N1CCC[C@H](C(=O)O)C1` [Example 103, (S)-1-(O-methyl-N-(2-oxo-4-(o-tolyl)-2H-chromen-7-yl)-seryl)piperidine-3-carboxylic acid], for which the IC50 amounted to 5000 nM.

Take `Cc1ccccc1-c1cc(=O)oc2cc(CC(C)C(=O)N3CCC(C(=O)O)CC3)ccc12` (single isomer, unassigned) [Example 95, 1-(2-methyl-3-(2-oxo-4-(o-tolyl)-2H-chromen-7-yl)propanoyl)piperidine-4-carboxylic acid]: the IC50 came to 4000 nM.

The compound `C[C@@H](Cc1ccc2c(-c3ccc(F)cc3Cl)cc(=O)oc2c1)C(=O)N1CCC[C@H](C(=O)O)C1` [Example 186, (S)-1-((S)-3-(4-(2-chloro-4-fluorophenyl)-2-oxo-2H-chromen-7-yl)-2-methylpropanoyl)piperidine-3-carboxylic acid] gave an IC50 of 28000 nM.

Compound “3-methoxy-2-((2-oxo-4-phenyl-2H-chromen-7-yl)amino)propanamide [Example 198]” came in with an IC50 of 2000 nM.

Compound `CCOC(=O)/C(C)=C/c1ccc2c(-c3ccccc3C)cc(=O)oc2c1` [Example 50, ethyl (E)-2-methyl-3-(2-oxo-4-(o-tolyl)-2H-chromen-7-yl)acrylate] showed an IC50 of 2000 nM.

Consider `Cc1ccccc1-c1cc(=O)oc2cc(NCc3ccnn3C)ccc12` [Example 192, 7-(((1-methyl-1H-pyrazol-5-yl)methyl)amino)-4-(o-tolyl)-2H-chromen-2-one], for which the 50% inhibitory concentration (IC50) was found to be 2000 nM.

In the case of `CC(=O)N(C)[C@@H]1CCCN(C(=O)c2ccc3c(-c4ccccc4C)cc(=O)oc3c2)C1` [Example 172, (R)—N-methyl-N-(1-(2-oxo-4-(o-tolyl)-2H-chromene-7-carbonyl)piperidin-3-yl)acetamide], the IC50 was over 100000 nM.

As for `C[C@H](Cc1ccc2c(-c3ccc(F)cc3Cl)cc(=O)oc2c1)C(=O)N1CCC[C@H](C(=O)O)C1` [Example 187, (S)-1-((R)-3-(4-(2-chloro-4-fluorophenyl)-2-oxo-2H-chromen-7-yl)-2-methylpropanoyl)piperidine-3-carboxylic acid], the concentration for half-maximal inhibition (IC50) turned out to be 100 nM.

The compound `Cc1ccccc1-c1cc(=O)oc2cc(CC(C)C(=O)N3CCC[C@H](C#N)C3)ccc12` (single isomer, unassigned) [Example 83] returned a half-maximal inhibitory concentration (IC50) of 60 nM.

In turn, `Cc1ccccc1-c1cc(=O)oc2cc(CC(C)C(=O)N(C)C)ccc12` (single isomer, unassigned) [Example 65, N,N,2-trimethyl-3-(2-oxo-4-(o-tolyl)-2H-chromen-7-yl)propanamide] showed an IC50 of 17000 nM.

Consider `Cc1ccccc1-c1cc(=O)oc2cc(NCC(C)C(=O)O)ccc12` (single isomer, unassigned) [Example 154-1, 2-methyl-3-((2-oxo-4-(o-tolyl)-2H-chromen-7-yl)amino)propanoic acid], for which the concentration for half-maximal inhibition (IC50) is 1000 nM.

In turn, `CC[C@@H](C(=O)O)N(C)c1ccc2c(-c3ccccc3C)cc(=O)oc2c1` [Example 180, (S)-2-(methyl(2-oxo-4-(o-tolyl)-2H-chromen-7-yl)amino)butanoic acid] returned an IC50 of 200 nM.

Take `CNC(=O)CCN(C)c1ccc2c(-c3ccccc3C)cc(=O)oc2c1` [Example 140, N-methyl-3-(methyl(2-oxo-4-(o-tolyl)-2H-chromen-7-yl)amino)propanamide]: the half-inhibitory concentration (IC50) was 900 nM.

As for `Cc1ccccc1-c1cc(=O)oc2cc(CNC(=O)N3CCC[C@H](C(=O)O)C3)ccc12` [Example 150, (S)-1-(((2-oxo-4-(o-tolyl)-2H-chromen-7-yl)methyl)carbamoyl)piperidine-3-carboxylic acid], the midpoint of inhibition, the IC50, lay at 2000 nM.

For the compound `COCc1ccc2c(-c3ccc(F)cc3Cl)cc(=O)oc2c1` [Example 16, 4-(2-chloro-4-fluorophenyl)-7-(methoxymethyl)-2H-chromen-2-one], 1000 nM corresponded to half-maximal inhibition (IC50).

The compound `Cc1ccccc1-c1cc(=O)oc2cc(CN(C)C(=O)N3CCC[C@H](C(=O)O)C3)ccc12` [Example 146, (S)-1-(methyl((2-oxo-4-(o-tolyl)-2H-chromen-7-yl)methyl)carbamoyl)piperidine-3-carboxylic acid] registered an IC50 of 300 nM.

Compound `C[C@@H](Nc1ccc2c(-c3ccc(F)cc3Cl)cc(=O)oc2c1)C(=O)N1CCOCC1` [Example 47, (R)-4-(2-chloro-4-fluorophenyl)-7-((1-morpholino-1-oxopropan-2-yl)amino)-2H-chromen-2-one] showed a 50% inhibitory concentration (IC50) of 400 nM.

As to `CC(=O)N(C)C1CCN(C(=O)c2ccc3c(-c4ccccc4C)cc(=O)oc3c2)CC1` [Example 110, N-methyl-N-(1-(2-oxo-4-(o-tolyl)-2H-chromene-7-carbonyl)piperidin-4-yl)acetamide], the IC50 was found to be 8000 nM.

In the case of `Cc1ccccc1-c1cc(=O)oc2cc(N(C)C(C)C(N)=O)ccc12` (stereo not shown) [Example 195, 2-(methyl(2-oxo-4-(o-tolyl)-2H-chromen-7-yl)amino)propanamide], the IC50 was 50 nM.

In turn, `Cc1ccccc1-c1cc(=O)oc2cc([C@@H]3C[C@H]3C(N)=O)ccc12` (relative stereo) [Example 238, chiral-(trans)-2-(2-oxo-4-(o-tolyl)-2H-chromen-7-yl)cyclopropane-1-carboxamide] returned a half-maximal inhibitory concentration (IC50) of 3000 nM.

`Cc1ccccc1-c1cc(=O)oc2cc(N(C)CC(C)C(=O)O)ccc12` (stereo not shown) [Example 155-2] came in with an IC50 of 400 nM.

`COC[C@@H](C(=O)N1CCC[C@H](C(=O)O)C1)N(C)c1ccc2c(-c3ccccc3C)cc(=O)oc2c1` (single isomer, unassigned) [Example 121] registered an IC50 of 300 nM.

Regarding `COC[C@@H]1CCN(C(=O)c2ccc3c(-c4ccccc4C)cc(=O)oc3c2)C1` [Example 116, (R)-7-(3-(methoxymethyl)pyrrolidine-1-carbonyl)-4-(o-tolyl)-2H-chromen-2-one], the IC50 was 45000 nM.

The compound `Cc1ccccc1-c1cc(=O)oc2cc(N(C)Cc3ccccn3)ccc12` [Example 168, 7-(methyl(pyridin-2-ylmethyl)amino)-4-(o-tolyl)-2H-chromen-2-one] gave a half-maximal inhibitory concentration (IC50) of 90 nM.

Turning to `Cc1ccccc1-c1cc(=O)oc2cc(N(C)CC(=O)NCCN(C)C)ccc12` [Example 221, N-(2-(dimethylamino)ethyl)-2-(methyl(2-oxo-4-(o-tolyl)-2H-chromen-7-yl)amino)acetamide], the concentration for half-maximal inhibition (IC50) is 2000 nM.

The compound `Cc1ccccc1-c1cc(=O)oc2cc(NCC(C)(C)C(=O)O)ccc12` [Example 127, 2,2-dimethyl-3-((2-oxo-4-(o-tolyl)-2H-chromen-7-yl)amino)propanoic acid] registered a half-maximal inhibitory concentration (IC50) of 200 nM.

`Cc1ccccc1-c1cc(=O)oc2cc(NCc3ccn[nH]3)ccc12` [Example 169, 7-(((1H-pyrazol-5-yl)methyl)amino)-4-(o-tolyl)-2H-chromen-2-one] gave a concentration for half-maximal inhibition (IC50) of 3000 nM.

`Cc1ccccc1-c1cc(=O)oc2cc([C@@H]3C[C@H]3C(N)=O)ccc12` (relative stereo) [Example 239, chiral-(trans)-2-(2-oxo-4-(o-tolyl)-2H-chromen-7-yl)cyclopropane-1-carboxamide] yielded an IC50 of 900 nM.

For the compound `CNC(=O)[C@H]1CCCN(C(=O)C(C)Cc2ccc3c(-c4ccccc4C)cc(=O)oc3c2)C1` (single isomer, unassigned) [Example 93], inhibition was half-maximal at 17000 nM (IC50).

Compound `CCNC(=O)[C@@H](C)Nc1ccc2c(-c3ccc(F)cc3Cl)cc(=O)oc2c1` [Example 48, (R)-2-((4-(2-chloro-4-fluorophenyl)-2-oxo-2H-chromen-7-yl)amino)-N-ethylpropanamide] came in with an IC50 of 3000 nM.

For the compound `Cc1ccccc1-c1cc(=O)oc2cc(N(C)[C@H](C)CC(=O)O)ccc12` [Example 230, (R)-3-(methyl(2-oxo-4-(o-tolyl)-2H-chromen-7-yl)amino)butanoic acid], inhibition was half-maximal at 200 nM (IC50).

As to `COCC(Nc1ccc2c(-c3ccccc3C)cc(=O)oc2c1)C(N)=O` (stereo not shown) [Example 199, 3-methoxy-2-((2-oxo-4-(o-tolyl)-2H-chromen-7-yl)amino)propanamide], the 50% inhibitory concentration (IC50) was found to be 800 nM.

Consider `Cc1ccccc1-c1cc(=O)oc2cc(NCC3(C(=O)O)CC3)ccc12` [Example 216, 1-(((2-oxo-4-(o-tolyl)-2H-chromen-7-yl)amino)methyl)cyclopropane-1-carboxylic acid], for which half-maximal inhibition (IC50) required 600 nM.

The values are drawn from patent US20250326732A1 (Pretzel Therapeutics, Inc., priority 2021, published 2025).
